For 5 compounds, Ki results are on record in BindingDB's records for doi:10.1073/pnas.71.5.1725 (1974).

The target of this test is T1, Muscarinic acetylcholine receptor M2 (Rattus norvegicus, UniProt P10980).
T1 sequence (P10980 whole entry): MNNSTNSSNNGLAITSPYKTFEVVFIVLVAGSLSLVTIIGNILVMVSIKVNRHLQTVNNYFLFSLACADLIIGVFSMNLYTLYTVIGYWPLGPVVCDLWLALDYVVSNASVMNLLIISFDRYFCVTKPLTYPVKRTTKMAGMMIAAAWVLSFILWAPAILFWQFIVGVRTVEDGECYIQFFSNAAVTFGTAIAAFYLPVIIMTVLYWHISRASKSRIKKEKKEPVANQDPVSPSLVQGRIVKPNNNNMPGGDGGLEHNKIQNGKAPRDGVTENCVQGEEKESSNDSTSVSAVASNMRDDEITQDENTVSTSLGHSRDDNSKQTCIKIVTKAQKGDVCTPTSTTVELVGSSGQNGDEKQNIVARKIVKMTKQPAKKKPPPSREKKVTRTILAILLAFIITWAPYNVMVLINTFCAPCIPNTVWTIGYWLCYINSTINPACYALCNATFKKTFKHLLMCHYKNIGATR

Turning to `CC(C)[N+](C)(CCC(C(N)=O)(c1ccccc1)c1ccccc1)C(C)C`, the affinity, expressed as Ki, was 1 nM.
Regarding `O=C1CCCN1CC#CCN1CCCC1` [1-[4-(2-oxo-pyrrolidin-1-yl)-but-2-ynyl]-pyrrolidinium], the inhibitory constant (Ki) (as a rule, the dissociation constant of the complex between target and ligand, obtained from inhibition or displacement) is 500 nM.
For the compound `CN(C)CCC(c1ccc(Br)cc1)c1ccccn1` (stereo not drawn) [2-(p-bromo-alpha-(2-dimethylaminoethyl)benzyl)pyridine], the inhibitory constant (Ki) is greater than 10000 nM.
`O=C(O)C=CC(=O)Oc1ccc(Cl)cc1` [NSC_6445134] showed an inhibition constant Ki greater than 10000 nM.
As for `CN(C)CCC(c1ccc(Cl)cc1)c1ccccn1` (stereo not given) [clorfeniramina], the Ki is greater than 10000 nM.
